Consider 31 compounds from ChEMBL document CHEMBL4382203, “Discovery, cocrystallization and biological evaluation of novel piperidine derivatives as high affinity Ls-AChBP ligands possessing α7 nAChR activities” (Eur J Med Chem, 2018).

Calls of active or inactive are those of the source. The calls are words filed in the database; no cut-off is given here. Bounds are passed on as bounds.

For data set [1], the target named is Acetylcholine-binding protein (Lymnaea stagnalis) (UniProt P58154). The data set can be described thus: Displacement of [3H]epibatidine from Lymnaea stagnalis acetylcholine-binding protein at 100 nM incubated for 60 mins followed by 3 hrs incubation in dark condition by microbeta counting analysis relative to control. (In general: Displacement assays read how much labelled ligand stays bound in the presence of the test substance.)
Sequence of Acetylcholine-binding protein (Lymnaea stagnalis) (P58154 whole entry): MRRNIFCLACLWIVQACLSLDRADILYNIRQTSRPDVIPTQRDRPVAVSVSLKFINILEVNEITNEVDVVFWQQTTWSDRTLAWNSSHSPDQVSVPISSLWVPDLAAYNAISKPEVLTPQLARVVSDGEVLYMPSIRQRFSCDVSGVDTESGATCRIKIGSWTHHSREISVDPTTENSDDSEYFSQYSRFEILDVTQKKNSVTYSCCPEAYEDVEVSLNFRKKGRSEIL

Data set [2] has as its target Acetylcholine-binding protein (Lymnaea stagnalis, UniProt P58154). The data set can be described thus: Displacement of [3H]epibatidine from Lymnaea stagnalis acetylcholine-binding protein incubated for 60 mins followed by 3 hrs incubation in dark condition by microbeta counting analysis.
Data set [3] has as its target T1, Neuronal acetylcholine receptor subunit alpha-7 (Homo sapiens, UniProt P36544). The data set can be described thus: Partial agonist activity at human alpha7 nAChR at 100 uM at -60 mV holding potential incubated for 1 sec followed by 60 secs compound washout relative to acetylcholine.
The nature of data set [4]: Half life in ICR mouse at 2 mg/kg, iv. The following applies: in vivo. The format is ADME, organism-based.
Data set [5] is described as follows: Ratio of drug level in blood to plasma in ICR mouse at 2 mg/kg, iv after 4 hrs. As to conditions: blood and plasma. The format is ADME, organism-based.
A short description of data set [6]: Cmax in ICR mouse at 2 mg/kg, iv. The format is ADME, organism-based. Set-up: dose 2 mg/kg, route intravenous. As to conditions: in vivo.
The target in data set [7] is T1, Neuronal acetylcholine receptor subunit alpha-7. The data set can be described thus: Partial agonist activity at human alpha7 nAChR at -60 mV holding potential incubated for 1 sec followed by 60 secs compound washout.
Data set [8] can be described thus: Ratio of drug level in blood to plasma in ICR mouse at 10 mg/kg, po after 4 hrs. As to conditions: blood and plasma. The format is ADME, organism-based.
Data set [9] in a line: Clearance in ICR mouse at 2 mg/kg, iv. The format is ADME, organism-based. The following applies: in vivo.
A short description of data set [10]: Apparent volume of distribution in ICR mouse at 2 mg/kg, iv. The format is ADME, organism-based. The following applies: in vivo, read-out: Vz.
Data set [11] can be described thus: Oral bioavailability in ICR mouse at 10 mg/kg. The format is ADME, organism-based. As to conditions: in vivo.
The nature of data set [12]: Cmax in ICR mouse at 10 mg/kg, po. Set-up: dose 10 mg/kg, route oral. The format is ADME, organism-based. The following applies: in vivo.
Data set [13] is described as follows: Tmax in ICR mouse at 2 mg/kg, iv. The format is ADME, organism-based. As to conditions: in vivo.
The nature of data set [14]: AUC (0 to infinity) in ICR mouse at 2 mg/kg, iv. The format is ADME, organism-based. The following applies: in vivo. On the set-up: dose 2 mg/kg, route intravenous, time infinity.
Data set [15] can be described thus: Half life in ICR mouse at 10 mg/kg, po. The format is ADME, organism-based. As to conditions: in vivo.
A short description of data set [16]: Tmax in ICR mouse at 10 mg/kg, po. As to conditions: in vivo. The format is ADME, organism-based.
A short description of data set [17]: AUC (0 to infinity) in ICR mouse at 10 mg/kg, po. The format is ADME, organism-based. Set-up: dose 10 mg/kg, time infinity, route oral. The following applies: in vivo.
Data set [18] concerns the target Neuronal acetylcholine receptor; alpha4/beta2 (Homo sapiens) (UniProt P17787+P43681). The data set can be described thus: Agonist activity at alpha4beta2 nAChR (unknown origin) at -60 mV holding potential incubated for 1 sec followed by 60 secs compound washout. The format is protein-complex assay.
Data set [19] deals with T1, Neuronal acetylcholine receptor subunit alpha-7. The data set can be described thus: Antagonist activity at human alpha7 nAChR assessed as inhibition of acetylcholine-induced response at 1 uM at -60 mV holding potential incubated for 30 secs followed by acetylcholine addition and subsequent compound washout for 30 secs relative to acetylcholine.
Data set [20] has the same target. Briefly: Antagonist activity at human alpha7 nAChR assessed as inhibition of acetylcholine-induced response at 100 uM at -60 mV holding potential incubated for 30 secs followed by acetylcholine addition and subsequent compound washout for 30 secs relative to acetylcholine.
The target is the same in data set [21]. Briefly: Partial agonist activity at human alpha7 nAChR expressed in Xenopus laevis oocytes at holding potential of -90 mV by patch clamp electrophysiological method. The format is cell-based.
For data set [22] the target is unchanged. The data set can be described thus: Partial agonist activity at human alpha7 nAChR expressed in Xenopus laevis oocytes by voltage clamp electrophysiological method. The format is cell-based.

Sequence of Acetylcholine-binding protein (P58154 whole entry): as above
T1 sequence (P36544 whole entry): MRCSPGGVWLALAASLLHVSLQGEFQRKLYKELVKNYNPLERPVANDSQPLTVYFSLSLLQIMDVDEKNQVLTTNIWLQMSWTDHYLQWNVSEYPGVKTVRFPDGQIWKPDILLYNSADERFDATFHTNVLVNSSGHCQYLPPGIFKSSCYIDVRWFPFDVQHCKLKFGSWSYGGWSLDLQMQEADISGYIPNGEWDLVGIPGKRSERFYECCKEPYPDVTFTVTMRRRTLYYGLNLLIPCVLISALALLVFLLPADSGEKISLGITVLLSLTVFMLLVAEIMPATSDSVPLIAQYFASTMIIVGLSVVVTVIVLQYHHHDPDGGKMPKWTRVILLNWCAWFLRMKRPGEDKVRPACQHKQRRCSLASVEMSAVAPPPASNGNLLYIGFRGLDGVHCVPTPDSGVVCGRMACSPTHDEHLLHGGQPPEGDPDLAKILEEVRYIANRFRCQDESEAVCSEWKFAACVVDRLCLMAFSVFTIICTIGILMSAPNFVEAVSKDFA

As a reminder, the inhibition is how much of the control response was suppressed. For orientation: Ki means the dissociation constant of the complex between target and ligand, obtained from inhibition or displacement. A low value points to tighter binding. In data set [1], `Clc1cccc(CC2(COc3ccc4c(c3)[nH]c3ccccc34)CCCNC2)c1` (centres undefined) had an inhibition of less than 50%. The Ki in data set [2] is more than 0.0677 µM.

As for `Clc1ccccc1CC1(COc2cccnc2)CCCNC1` (centres undefined), in [2], the affinity corresponds to a Ki of 0.013 µM. Further, the Efficacy in data set [3] came out at 16.8%.

`Clc1cccc(CC2(COc3ccc(Cl)nc3)CCCNC2)c1` (centres undefined) had an inhibitory constant (Ki) in [2] of 0.00339 µM. Besides, the Efficacy in data set [3] was found to be 4.4%.

A word on the half-life: it is the time in which the quantity being followed falls by half. A word on the Cmax: it is the maximum level reached in the sampled fluid or tissue. In general, EC50 refers to the concentration that produces a half-maximal response. What is called clearance is a measure of how efficiently the substance is removed, as volume per time. A word on the bioavailability: it is dose-corrected exposure relative to a reference, in per cent. Lower therefore signals poor availability. For orientation: Tmax means the time from dosing to the highest level. As a reminder, the AUC(0-inf) is the area under the concentration-time curve extrapolated to infinity. A word on the Emax: it is the maximal effect, on the per cent scale that the assay sets. Turning to `Clc1ccc(C[C@@]2(COc3cccnc3)CCCNC2)cc1Cl`, the half-life in data set [4] was 72 min; in data set [15], 102 min. Moreover, the blood plasma ratio at 4 h is 8.8 in data set [5] and 5.1 in data set [8]. Further, the Cmax is 1 µM in data set [6] and 1.1 µM in [12]. This compound also had a concentration giving a half-maximal response (EC50) in [7] of 20.4 µM. In data set [9], the clearance was found to be 7.72 L/h/kg. Also, the Vd in data set [10] was found to be 13.3 L/kg. In data set [11], this compound had a bioavailability of 51.2%. Further, the Tmax in data set [13] was determined as 4.8 min; in data set [16] it was 30 min. Further, the figures for the AUC(0-inf) in data set [14] and in data set [17] were 700 nM·h and 1900 nM·h, respectively. The same compound showed a Ki in [2] of 0.00086 µM. In addition, the outcome in data set [18] was inactive. The compound also gave an Efficacy in data set [3] of 33.3%. This compound also gave an Emax in [3] of 36.1%.

Turning to `Clc1cccc(CC2(COc3cccnc3)CCCNC2)c1` (centres undefined), in data set [2], the Ki came to 0.0053 µM. The compound also gave an Efficacy in [3] of 33.8%.

Take `Cc1cccc(CC2(COc3cccnc3)CCCNC2)c1` (centres undefined): affinity in data set [2] was put at a Ki of 0.0124 µM. The compound also gave an Efficacy in data set [3] of 14.8%.

Consider `c1ccc(-c2ccc(CC3(COc4cccnc4)CCCNC3)cc2)cc1` (centres undefined), for which the inhibition was determined as 53.4% in data set [19] and 96.5% in data set [20]. In data set [2], this compound gave a Ki of 0.0117 µM. Further, the Efficacy in data set [3] came to 7.9%.

In the case of `Clc1cccc(CC2(COc3cncnc3)CCCNC2)c1` (centres undefined), the Ki in data set [2] is 0.00522 µM.

Compound `Clc1cccc(CC2(COc3ccccn3)CCCNC2)c1` (centres undefined) had an inhibition in data set [1] of less than 50%. In [2], this compound gave an inhibition constant (Ki) of more than 0.0677 µM.

In data set [21], `Cc1ccc(-c2ccc(O[C@H]3CN4CCC3CC4)cn2)cc1` registered an EC50 of 0.039 µM.

As for `OCCCCC#Cc1cncc(OCC2(Cc3cccc(Cl)c3)CCCNC2)c1` (centres undefined), the results for the inhibition in data set [19] and in data set [20] were 12.8% and 97.3%, respectively. This compound also had an inhibition constant Ki in data set [2] of 0.00347 µM. In addition, in [18], the outcome was inactive. The compound further came in with an Efficacy in data set [3] of 4.5%.

For the compound `Clc1ccc(C[C@]2(COc3cccnc3)CCCNC2)cc1Cl`, the inhibition is 27.2% in [19] and 90.8% in [20]. In [2], affinity was put at a Ki of 0.0262 µM. For the same compound, in data set [18], the result was inactive. Besides, the Efficacy in data set [3] came to 5.5%.

Consider `Clc1cccc(CC2(COc3cncc(-c4ccccc4)c3)CCCNC2)c1` (centres undefined), for which the inhibition in data set [1] was less than 50%. Further, the inhibition constant (Ki) in data set [2] is more than 0.0677 µM.

With `OCCCCC#Cc1ccc(OCC2(Cc3cccc(Cl)c3)CCCNC2)cn1` (centres undefined), the Ki in data set [2] turned out to be 0.016 µM. This compound also yielded an Efficacy in data set [3] of 8.5%.

In turn, `OCCCC#Cc1cncc(OCC2(Cc3cccc(Cl)c3)CCCNC2)c1` (centres undefined) yielded a Ki in data set [2] of 0.0125 µM.

Compound `FC(F)(F)c1cccc(CC2(COc3cccnc3)CCCNC2)c1` (centres undefined) returned a Ki in data set [2] of 0.00593 µM. In data set [18], the outcome was inactive. Besides, in [3], the Efficacy was 28%.

In [2], `Clc1cccc(CC2(COc3ccncc3)CCCNC2)c1` (centres undefined) returned an inhibition constant (Ki) of 0.0165 µM.

Compound `FC(F)(F)c1ccccc1CC1(COc2cccnc2)CCCNC1` (centres undefined) showed an inhibition constant (Ki) in data set [2] of 0.0172 µM. In [3], this compound gave an Efficacy of 13.5%.

As to `Clc1ccc(CC2(COc3cccnc3)CCCNC2)cc1Cl` (centres undefined), in data set [2], the Ki came out at 0.00227 µM.

`Clc1cccc(CC2(COc3cncc(Br)c3)CCCNC2)c1` (centres undefined) returned an inhibitory constant (Ki) in [2] of 0.0222 µM.

In [2], `Cc1ccc(CC2(COc3cccnc3)CCCNC2)cc1` (centres undefined) showed an inhibition constant Ki of 0.0165 µM. Further, the Efficacy in data set [3] was found to be 13%.

For `Clc1cccc(CC2(COc3cccnc3)CCCNC2)c1Cl` (centres undefined), affinity in [2] was put at a Ki of 0.00602 µM. The Efficacy in data set [3] came out at 19.5%.

`Clc1cccc(CC2(COc3ccc(Br)nc3)CCCNC2)c1` (centres undefined) displayed an inhibition constant (Ki) in data set [2] of 0.0114 µM.

With `OCCCC#Cc1ccc(OCC2(Cc3cccc(Cl)c3)CCCNC2)cn1` (centres undefined), the inhibition in data set [1] is less than 50%. This compound also registered a Ki in [2] of more than 0.0677 µM.

The compound `Clc1ccc(CC2(COc3cccnc3)CCCNC2)cc1` (centres undefined) had a Ki in data set [2] of 0.00977 µM. The Efficacy in data set [3] amounted to 18.2%.

In turn, `OCCC#Cc1cncc(OCC2(Cc3cccc(Cl)c3)CCCNC2)c1` (centres undefined) yielded a Ki in [2] of 0.00557 µM.

For the compound `Clc1ccc(CC2(COc3cccnc3)CCNCC2)cc1Cl`, the inhibition is 27.2% in data set [19] and 94% in data set [20]. The result in data set [18] was inactive. In addition, the Efficacy in data set [3] came out at 3.1%.

For the compound `FC(F)(F)c1ccc(CC2(COc3cccnc3)CCCNC2)cc1` (centres undefined), in [2], the Ki came out at 0.0119 µM. For the same compound, in data set [3], the Efficacy worked out at 17.5%.

`OCCC#Cc1ccc(OCC2(Cc3cccc(Cl)c3)CCCNC2)cn1` (centres undefined) gave an inhibitory constant (Ki) in data set [2] of 0.029 µM.

On to `O=C(N[C@H]1CN2CCC1CC2)c1cc2cccc(Cl)c2s1` [ENCENICLINE], for which the midpoint of the response in data set [22], the EC50, lay at 0.39 µM.

In data set [2], `Cc1ccccc1CC1(COc2cccnc2)CCCNC1` (centres undefined) displayed a Ki of 0.0188 µM. In data set [3], this compound returned an Efficacy of 12.8%.
